The record followed here is patent publication US20230000842A1, “METHODS OF TREATING CARTILAGE DISORDERS THROUGH INHIBITION OF CLK AND DYRK” (SAMUMED, LLC, priority 2019, published 2023).

One test concerns the target CLK3 kinase (Homo sapiens, UniProt P49761). As to the kind of experiment: CLK3 kinase activity assay (Z-lyte FRET).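 Further: kinase activity read as coumarin/fluorescein emission ratio by FRET, unphosphorylated peptide as 0% and phosphorylated peptide as 100% control, values from non-linear regression of dose-response curves.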 Conditions: Z-lyte Ser/Thr 18 peptide, 156 μM ATP, 1 h at room temperature. It is filed as biochemical.
The target of the next test is CLK2 kinase (Homo sapiens, UniProt P49760). Nature of the test: CLK2 kinase activity assay (Z-lyte FRET).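 Further: FRET read-out as coumarin to fluorescein emission ratio, unphosphorylated peptide as 0% and phosphorylated peptide as 100% controls, duplicate reactions, non-linear regression fit of dose-response curves.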 It is filed as biochemical. The note with it: Z-lyte Ser/Thr 6 peptide, 60 μM ATP, 1 h at room temperature.
CLK2 kinase, sequence (P49760 whole entry): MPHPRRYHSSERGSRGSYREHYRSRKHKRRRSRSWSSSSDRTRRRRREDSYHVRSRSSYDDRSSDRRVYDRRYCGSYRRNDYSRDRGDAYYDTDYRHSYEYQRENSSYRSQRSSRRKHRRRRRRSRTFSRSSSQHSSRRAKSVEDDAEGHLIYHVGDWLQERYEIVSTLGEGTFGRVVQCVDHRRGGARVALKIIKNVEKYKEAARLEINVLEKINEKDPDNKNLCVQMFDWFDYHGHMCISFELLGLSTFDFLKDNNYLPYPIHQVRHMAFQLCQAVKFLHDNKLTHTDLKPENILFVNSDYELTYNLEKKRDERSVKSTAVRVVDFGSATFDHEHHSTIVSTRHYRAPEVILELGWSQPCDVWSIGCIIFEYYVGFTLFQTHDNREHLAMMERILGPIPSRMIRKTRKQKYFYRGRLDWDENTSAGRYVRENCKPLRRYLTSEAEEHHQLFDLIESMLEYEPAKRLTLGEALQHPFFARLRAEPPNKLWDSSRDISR
In test [1] the test system is Wnt pathway activity (SW480 colon carcinoma cells stably expressing the Sp5-Luc reporter). As to the kind of experiment: Wnt pathway activity screening assay (Sp5-Luc reporter gene assay). Conditions: Homo sapiens, SW480, Table 4; SW480 cells stably expressing Sp5-Luc reporter, 10-point dose-response from 10 μM, 36 to 48 hours. A general note: A reporter such as luciferase makes a cellular process visible.
Description: The screening assay for Wnt pathway activity is described as follows.
SW480 colon carcinoma cells were transduced with a lentiviral vector expressing luciferase with a human Sp5 promoter consisting of a sequence of eight TCF/LEF binding sites. […] These stably transduced SW480 cells were expanded in cell culture and used for all further screening activities. Each compound was dissolved in DMSO as a 10 mM stock and used to prepare compound source plates. Serial dilution (1:3, 10-point dose-response curves starting from 10 μM) and compound transfer was performed using the ECHO 550 (Labcyte, Sunnyvale, Calif.) into 384-well white solid bottom assay plates (Greiner Bio-One) with appropriate DMSO backfill for a final DMSO concentration of 0.1%. […] Following incubation, 15 μl of BriteLite Plus luminescence reagent (Perkin Elmer) was added to each well of the 384-well assay plates. The plates were placed on an orbital shaker for 2 min and then luminescence was quantified using the Envision (Perkin Elmer) plate reader.

Test [2] deals with primary human mesenchymal stem cells (hMSCs). As to the kind of experiment: Chondrogenesis screening using primary human mesenchymal stem cells. Conditions: Homo sapiens, Mesenchymal stem cells, hMSC chondrogenesis; for Emax: maximum activity relative to TGF-β3 (10 ng/mL) positive control, read-out: Max. Activity as % TGF-β3 activity; for EC50: concentration required to induce 50% levels of chondrogenesis with TGF-β3 as positive control, read-out: Conc (nM) of 50% TGF-β3 activity. It is filed as cell-based. The procedure, abridged:
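Primary hMSCs at passage 3–6 were treated across compound concentrations, with TGF-β3 as positive control. Chondrogenic nodule area per well was normalized to 3 DMSO wells on the same plate (fold over DMSO, 2–3 replicates). EC50, maximum activity and the dose reaching it were derived.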

CLK3 kinase, sequence (P49761 whole entry): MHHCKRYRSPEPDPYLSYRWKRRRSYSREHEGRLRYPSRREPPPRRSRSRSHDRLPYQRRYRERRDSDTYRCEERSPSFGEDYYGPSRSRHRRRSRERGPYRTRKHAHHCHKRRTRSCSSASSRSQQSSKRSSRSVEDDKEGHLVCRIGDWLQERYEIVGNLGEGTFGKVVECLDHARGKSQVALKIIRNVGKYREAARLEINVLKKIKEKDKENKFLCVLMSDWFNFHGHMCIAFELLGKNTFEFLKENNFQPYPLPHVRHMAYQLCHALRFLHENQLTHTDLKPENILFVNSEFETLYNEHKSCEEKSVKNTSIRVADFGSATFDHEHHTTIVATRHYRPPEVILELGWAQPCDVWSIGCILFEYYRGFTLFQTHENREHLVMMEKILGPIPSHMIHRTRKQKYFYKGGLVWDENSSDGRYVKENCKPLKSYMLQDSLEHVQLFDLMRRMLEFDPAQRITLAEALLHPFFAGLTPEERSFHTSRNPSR

`CC(C)(C)C(=O)Nc1cncc(-c2ccc3[nH]nc(-c4nc5c(-c6ccc(F)cc6)cncc5[nH]4)c3n2)c1` [compound 162]: the EC50 on CLK3 kinase is 9840 nM; at CLK2 kinase, 8 nM; in test [1], 2730 nM. The Emax in test [2] came to 41.8%.
Regarding `CN(C)Cc1cncc(-c2ccc3[nH]nc(-c4cc5c(-c6ccncc6)cncc5[nH]4)c3c2)c1` [compound 398], the EC50 on CLK3 kinase worked out at 56 nM; on CLK2 kinase, 3 nM; in test [1], 1060 nM. For the same molecule, the Emax in test [2] turned out to be 17.8%.
Regarding `CC(C)Nc1cncc(-c2cnc3[nH]nc(-c4cc5c(-c6cccnc6)ccnc5[nH]4)c3c2)c1` [compound 362], the EC50 at CLK3 kinase is 292 nM; on CLK2 kinase, 4 nM; in test [1], over 10000 nM; in test [2] it was 10 nM. Further, the Emax in test [2] turned out to be 135%.
The like results for `FC1(F)CCN(Cc2cncc(-c3ccc4[nH]nc(-c5cc6c(N7CCCCC7)cccc6[nH]5)c4c3)c2)C1` [compound 467] were, in that order, 279 nM, 12 nM, 750 nM, 30 nM and 160%.
Take `CN(C)Cc1cncc(-c2ccc3[nH]nc(-c4cc5c(-c6cccc(F)c6)nccc5[nH]4)c3c2)c1` [compound 308]: the EC50 on CLK3 kinase turned out to be 83 nM; on CLK2 kinase it was 7 nM; in test [1], 2940 nM. The Emax in test [2] came out at 42%.
With `Cc1ncc(-c2cnc3[nH]nc(-c4nc5c(-c6cccc(F)c6)nccc5[nH]4)c3c2)n1C` [compound 159], the EC50 on CLK3 kinase is 34 nM; at CLK2 kinase, 1 nM; in test [1], 12.5 nM; in test [2], 100 nM. Also, the Emax in test [2] stood at 152%.
`c1cncc(-c2ccc3[nH]nc(-c4cc5c(-c6cccnc6)ccnc5[nH]4)c3c2)c1` [compound 342]: the EC50 at CLK3 kinase is 90 nM; on CLK2 kinase, 4 nM; in test [1], over 10000 nM. Besides, the Emax in test [2] was determined as 16.7%.
Turning to `CCC(=O)Nc1cncc(-c2ccc3[nH]nc(-c4nc5c(N6CCCCC6)ccnc5[nH]4)c3n2)c1` [compound 207], the EC50 at CLK3 kinase is 1290 nM; at CLK2 kinase, 3 nM; in test [1], over 10000 nM. Further, the Emax in test [2] is 38.3%.
With `c1cncc(-c2cnc3[nH]nc(-c4nc5c(-c6cccnc6)cncc5[nH]4)c3c2)c1` [compound 181], the EC50 on CLK3 kinase was 17 nM; on CLK2 kinase it was 15 nM; in test [1], over 10000 nM. Moreover, in test [2], the Emax is 62.9%.
On to `Nc1cncc(-c2ccc3[nH]nc(-c4cc5c(-c6ccccc6F)ccnc5[nH]4)c3c2)c1` [compound 320], for which the EC50 on CLK3 kinase worked out at 33 nM; at CLK2 kinase, 9 nM; in test [1], 131 nM. For the same molecule, the Emax in test [2] worked out at 23.5%.
In the case of `CC(C)(C)C(=O)Nc1cncc(-c2ccc3[nH]nc(-c4cc5c(-c6ccncc6)ccnc5[nH]4)c3c2)c1` [compound 390], the results for the EC50 (on CLK3 kinase; at CLK2 kinase; in test [1]) were 137 nM, 11 nM and over 10000 nM, respectively. In addition, in test [2], the Emax turned out to be 44.4%.
For `CCNCc1cncc(-c2cnc3[nH]nc(-c4nc5c(-c6cccc(F)c6)cccc5[nH]4)c3c2)c1` [compound 134], the results for the EC50 (on CLK3 kinase; on CLK2 kinase; in test [1]) were 76 nM, 6 nM and 40.9 nM, respectively. Also, the Emax in test [2] came out at 98.7%.
On the same counts, the results for `FC1(F)CCN(Cc2cncc(-c3ccc4[nH]nc(-c5cc6c(-c7cccnc7)cncc6[nH]5)c4n3)c2)C1` [compound 371] are 408 nM, 11 nM, 3850 nM and 23.3%.
Regarding `CN(C)c1cncc(-c2cc3c(-c4cc5cnccc5[nH]4)n[nH]c3cn2)c1` [compound 441], the EC50 on CLK3 kinase amounted to 538 nM; on CLK2 kinase, 5 nM; in test [1] it was 3060 nM; in test [2], 300 nM. The Emax in test [2] worked out at 101%.
For `Nc1cncc(-c2cnc3[nH]nc(-c4cc5c(-c6ccncc6)nccc5[nH]4)c3c2)c1` [compound 378], the EC50 was 50 nM at CLK3 kinase, 2 nM at CLK2 kinase, over 10000 nM in test [1] and 30 nM in test [2]. Besides, in test [2], the Emax was found to be 53.5%.
The like results for `Nc1cncc(-c2cc3c(-c4cc5c(-c6ccccc6F)nccc5[nH]4)n[nH]c3cn2)c1` [compound 323] were, in that order, 59 nM, 2 nM, 224 nM, 10 nM and 117%.
For `O=C(Nc1cncc(-c2cnc3[nH]nc(-c4nc5c(-c6cccnc6)cncc5[nH]4)c3c2)c1)C1CC1` [compound 190], the results for the EC50 (on CLK3 kinase; on CLK2 kinase; in test [1]) were 39 nM, 5 nM and 23.3 nM, respectively. For the same molecule, the Emax in test [2] was 86.3%.
For `COc1cccc(-c2cncc3[nH]c(-c4n[nH]c5ccc(-c6cccnc6)nc45)nc23)c1` [compound 296], the EC50 at CLK3 kinase was 55 nM; on CLK2 kinase, 1 nM; in test [1], over 10000 nM; in test [2] it was 30 nM. The Emax in test [2] worked out at 59.2%.
For `CN1CCN(c2ccnc3[nH]c(-c4n[nH]c5ncc(-c6cn[nH]c6)cc45)cc23)CC1` [compound 497], the EC50 at CLK3 kinase is 678 nM; at CLK2 kinase it was 5 nM; in test [1] it was over 10000 nM. The Emax in test [2] amounted to 20.1%.
For the molecule `c1cncc(-c2cc3c(-c4cc5c(-c6cccnc6)cncc5[nH]4)n[nH]c3cn2)c1` [compound 343], the EC50 on CLK3 kinase was 468 nM; at CLK2 kinase, 3 nM; in test [1], 1340 nM; in test [2], 100 nM. The Emax in test [2] was determined as 76.4%.
Consider `O=C(Nc1cncc(-c2ccc3[nH]nc(-c4nc5c(N6CCCCC6)cncc5[nH]4)c3c2)c1)C1CCC1` [compound 210], for which the EC50 came out at 54 nM at CLK3 kinase, 7 nM at CLK2 kinase, 39 nM in test [1] and 30 nM in test [2]. Also, in test [2], the Emax turned out to be 106%.
In the case of `COc1cncc(-c2ccc3[nH]nc(-c4nc5c(-c6cccc(F)c6)nccc5[nH]4)c3n2)c1` [compound 148], the EC50 amounted to 124 nM at CLK3 kinase, 4 nM on CLK2 kinase, 120 nM in test [1] and 20.6 nM in test [2]. In test [2], the Emax was 60.4%.
As to `COc1cncc(C(=O)Nc2c[nH]nc2C(=O)Nc2ccc(N3CCNCC3)nc2)c1` [compound 7], the EC50 worked out at 2360 nM at CLK3 kinase, 14 nM on CLK2 kinase and 681 nM in test [1]. Further, the Emax in test [2] is 90.7%.
`c1cnc2[nH]c(-c3n[nH]c4ccc(-c5cncc(OCCN6CCCC6)c5)cc34)cc2c1` [compound 453]: the EC50 worked out at 246 nM on CLK3 kinase, 2 nM on CLK2 kinase and 3300 nM in test [1]. The Emax in test [2] came out at 42.7%.
Take `c1cncc(-c2ccc3[nH]nc(-c4nc5c(-c6cccnc6)ccnc5[nH]4)c3n2)c1` [compound 185]: the EC50 was determined as 308 nM on CLK3 kinase, 1 nM on CLK2 kinase, 1510 nM in test [1] and 300 nM in test [2]. Also, in test [2], the Emax came to 94.6%.
Consider `c1cncc(-c2ccc3[nH]nc(-c4nc5c(-c6cccnc6)cccc5[nH]4)c3n2)c1` [compound 180], for which the EC50 worked out at 296 nM at CLK3 kinase, 2 nM at CLK2 kinase, 1120 nM in test [1] and 30 nM in test [2]. The Emax in test [2] came to 57.8%.
For the molecule `Cc1ccc(-c2cccc3[nH]c(-c4n[nH]c5ccc(-c6cncc(N)c6)nc45)nc23)s1` [compound 271], the EC50 came out at 34 nM at CLK3 kinase, 2 nM on CLK2 kinase, 66.3 nM in test [1] and 10 nM in test [2]. Besides, the Emax in test [2] is 87.9%.
Consider `Nc1cncc(-c2ccc3[nH]nc(-c4nc5c(-c6ccccc6F)ccnc5[nH]4)c3c2)c1` [compound 167], for which the EC50 was 19 nM at CLK3 kinase, 4 nM at CLK2 kinase, 2 nM in test [1] and 30 nM in test [2]. Further, the Emax in test [2] was 113%.
For the molecule `CCCC(=O)Nc1cncc(-c2ccc3[nH]nc(-c4nc5c(-c6ccncc6)cncc5[nH]4)c3n2)c1` [compound 196], the EC50 came to 995 nM at CLK3 kinase, 5 nM on CLK2 kinase and 999 nM in test [1]. Besides, the Emax in test [2] is 31%.
`CS(=O)(=O)NCc1cc(F)cc(-c2cncc3[nH]c(-c4n[nH]c5ccc(-c6cncc(NC(=O)C7CC7)c6)nc45)cc23)c1` [compound 526]: the EC50 at CLK3 kinase is 140 nM; on CLK2 kinase it was 4 nM; in test [1], 1300 nM; in test [2] it was 10 nM. In test [2], the Emax turned out to be 82.9%.
For `CN1CCN(c2nccc3[nH]c(-c4n[nH]c5ccc(-c6cncc(NC(=O)C7CCCCC7)c6)cc45)cc23)CC1` [compound 482], the EC50 is 2380 nM on CLK3 kinase, 14 nM at CLK2 kinase and 5270 nM in test [1]. For the same molecule, the Emax in test [2] turned out to be 37.8%.
In the case of `CCNCc1cncc(-c2ccc3[nH]nc(-c4cc5c(-c6cc(F)cc(CNS(C)(=O)=O)c6)cncc5[nH]4)c3c2)c1` [compound 531], the EC50 on CLK3 kinase was 52 nM; on CLK2 kinase it was 5 nM; in test [1], over 10000 nM. Also, the Emax in test [2] was determined as 58%.
